The results in this text go back to PubChem BioAssay (NCI).

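These data come from cells grown in 96-well plates and exposed to compound for 48 hours at five concentrations. Here, GI50 denotes the concentration required for 50% inhibition of growth. TGI marks complete inhibition of growth.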

Among the test systems are NCI-H522 lung; T-47D breast; LOX IMVI melanoma; SNB-19 CNS; A549 NSCLC; HCT-116 colon; BT-549 breast; HOP-62 NSCLC; K-562 leukemia; NCI-H460 lung.
Holding throughout (assay): NCI tumour cell line growth inhibition, 48 h

Regarding `COc1cc2c(c(OC)c1O)-c1ccc(OC)c(=O)cc1[C@@H](NC(=O)C(F)(F)F)CC2`, the TGI is 0.0665 µM in the assay on NCI-H522 lung; above 100 µM with T-47D breast; above 100 µM in the assay on LOX IMVI melanoma; above 100 µM with SNB-19 CNS; above 100 µM in the assay with A549 NSCLC; above 40.8 µM in the assay on HCT-116 colon. Also, the TGI was above 100 µM in the assay on BT-549 breast, 2.4 µM in the assay on HOP-62 NSCLC and above 100 µM in the assay with K-562 leukemia.
As for `CCN(CC)CC.CCOc1ccc(NC(=O)N=C=[N-])cc1.[CH-]1CCCCC1.[CH-]1CCCCC1.[CH-]1CCCCC1.[Cl-].[Sn+4]`, the GI50 is 20.5 nM in the assay with NCI-H522 lung; 0.0157 µM with LOX IMVI melanoma; 0.0586 µM in the assay with SNB-19 CNS; 0.0331 µM with A549 NSCLC; 0.014 µM with HCT-116 colon; 149 nM in the assay on BT-549 breast. The GI50 was 0.0279 µM with NCI-H460 lung, 0.122 µM in the assay with HOP-62 NSCLC and 17.1 nM in the assay with K-562 leukemia. Also, the TGI in the assay on NCI-H522 lung is 0.0549 µM; in the assay with LOX IMVI melanoma, 0.0483 µM; in the assay with SNB-19 CNS, 0.122 µM; in the assay on A549 NSCLC, 0.107 µM; in the assay on HCT-116 colon, 0.0289 µM; in the assay with BT-549 breast, 0.292 µM. Moreover, the TGI worked out at 0.575 µM in the assay with NCI-H460 lung, 0.234 µM with HOP-62 NSCLC and 0.463 µM in the assay with K-562 leukemia.
As to `Cc1ccc(S(=O)(=O)Oc2ccc([N+](=O)[O-])cc2[N+](=O)[O-])cc1`, the GI50 in the assay with T-47D breast is 15.3 µM; in the assay with LOX IMVI melanoma, 3.23 µM; in the assay with SNB-19 CNS it was 17.2 µM; with A549 NSCLC, 8.53 µM; in the assay with HCT-116 colon, 3.16 µM; in the assay with BT-549 breast it was 5410 nM. Further, the GI50 is 15.4 µM in the assay on NCI-H460 lung, 13.6 µM in the assay with HOP-62 NSCLC and 689 nM in the assay on K-562 leukemia. Also, the TGI in the assay with T-47D breast came out at 45 µM; in the assay with LOX IMVI melanoma it was 15 µM; in the assay on SNB-19 CNS, 38.1 µM; in the assay on A549 NSCLC, 22.2 µM; in the assay on HCT-116 colon it was 13.2 µM; in the assay on BT-549 breast, 18 µM. The TGI is 39 µM in the assay with NCI-H460 lung, 30.5 µM in the assay on HOP-62 NSCLC and above 100 µM with K-562 leukemia.
In the case of `O=C(CSc1nc2ccccc2nc1-c1ccccc1)Nc1ccc(Cl)cc1`, the GI50 in the assay with NCI-H522 lung is 15300 nM; in the assay with T-47D breast, 13 µM; with LOX IMVI melanoma, 38.3 µM; with SNB-19 CNS it was 35.9 µM; in the assay with A549 NSCLC, 32 µM; with HCT-116 colon, 5.24 µM. For the same molecule, the GI50 was 33500 nM in the assay with BT-549 breast, 11.8 µM in the assay on NCI-H460 lung and 5.28 µM with HOP-62 NSCLC. Also, the TGI is 74.3 µM with NCI-H522 lung; above 100 µM with T-47D breast; above 100 µM in the assay on LOX IMVI melanoma; above 100 µM in the assay on SNB-19 CNS; above 100 µM with A549 NSCLC; 24 µM in the assay with HCT-116 colon. Besides, the TGI in the assay with BT-549 breast is above 100 µM; in the assay with NCI-H460 lung it was 36.8 µM; with HOP-62 NSCLC it was 20.4 µM.
Turning to `Nc1nc(Cl)cc(NCCCCCNc2cc(Cl)nc(N)n2)n1`, the TGI in the assay on NCI-H522 lung, in the assay on LOX IMVI melanoma, in the assay on SNB-19 CNS, in the assay with A549 NSCLC, in the assay on HCT-116 colon and in the assay on NCI-H460 lung was above 100 µM throughout. Besides, the TGI in the assay with HOP-62 NSCLC and with K-562 leukemia was above 100 µM in each case.
As for `N.N.N.N.O=NN1CCCCCC1(P(=O)([O-])[O-])P(=O)([O-])[O-].[Pt+4].[Pt+4]`, the GI50 in the assay with NCI-H522 lung is above 100000 nM; in the assay on LOX IMVI melanoma, above 100 µM; in the assay on SNB-19 CNS, above 100 µM; with A549 NSCLC, above 100 µM; with HCT-116 colon, above 100 µM; with NCI-H460 lung, above 100 µM. The GI50 with HOP-62 NSCLC is above 100 µM; in the assay with K-562 leukemia it was above 100000 nM. Besides, the TGI with NCI-H522 lung, with LOX IMVI melanoma, in the assay with SNB-19 CNS, with A549 NSCLC, in the assay on HCT-116 colon and in the assay with NCI-H460 lung was above 100 µM in each case. Also, the TGI with HOP-62 NSCLC and with K-562 leukemia was above 100 µM throughout.
Regarding `CCCOc1ccc(-c2nc(-c3ccc(N=Cc4ccc(N(CCOS(C)(=O)=O)CCOS(C)(=O)=O)cc4C)cc3)cs2)cc1`, the TGI is 4.99 µM with NCI-H522 lung; above 92.1 µM in the assay with T-47D breast; 66.8 µM with LOX IMVI melanoma; above 94.5 µM in the assay with SNB-19 CNS; 34.2 µM in the assay on A549 NSCLC; above 85.2 µM in the assay on HCT-116 colon. The TGI in the assay with NCI-H460 lung is 24 µM; in the assay on HOP-62 NSCLC, 43.7 µM; in the assay with K-562 leukemia it was above 100 µM.
As to `Cc1ccc2c(c1)C(C)Cc1c(ncnc1-n1cnc3cc(C)ccc31)N2C` (stereo not drawn), the GI50 in the assay on NCI-H522 lung was 26 nM; in the assay on LOX IMVI melanoma, 0.0361 µM; in the assay with SNB-19 CNS, 0.0522 µM; in the assay on A549 NSCLC, 0.0421 µM; in the assay with HCT-116 colon it was 0.0316 µM; in the assay with BT-549 breast, 28.1 nM. Also, the GI50 is 0.034 µM in the assay with NCI-H460 lung, 0.0352 µM in the assay on HOP-62 NSCLC and 34 nM in the assay on K-562 leukemia. For the same molecule, the TGI stood at 0.0784 µM with NCI-H522 lung; 12.2 µM in the assay with LOX IMVI melanoma; 21.9 µM with SNB-19 CNS; 13.4 µM in the assay with A549 NSCLC; 5.21 µM with HCT-116 colon; 0.338 µM in the assay on BT-549 breast. In addition, the TGI in the assay with NCI-H460 lung was 4.39 µM; in the assay on HOP-62 NSCLC it was 15.6 µM; in the assay with K-562 leukemia, 16.5 µM.
On to `C=CCCCn1ccc2ccccc21`, for which the TGI in the assay with NCI-H522 lung, in the assay on LOX IMVI melanoma, in the assay on SNB-19 CNS, in the assay with A549 NSCLC, in the assay with HCT-116 colon and in the assay with NCI-H460 lung was above 100 µM in each case. Further, the TGI in the assay with HOP-62 NSCLC and with K-562 leukemia was above 100 µM in each case.
As for `O=C(Cc1nc2ccccc2s1)Nc1ccc(Cl)cc1`, the TGI in the assay with NCI-H522 lung, in the assay on LOX IMVI melanoma, in the assay with SNB-19 CNS, in the assay with A549 NSCLC, with HCT-116 colon and in the assay on NCI-H460 lung was above 100 µM each time. Further, the TGI in the assay with HOP-62 NSCLC and in the assay on K-562 leukemia was above 100 µM throughout.
For `O=C(NCCO)c1cc2c(cn1)[nH]c1ccccc12`, the TGI in the assay with NCI-H522 lung, with LOX IMVI melanoma, in the assay on SNB-19 CNS, with A549 NSCLC, in the assay with HCT-116 colon and in the assay with NCI-H460 lung was above 100 µM throughout. Besides, the TGI with HOP-62 NSCLC was 40.1 µM; with K-562 leukemia, above 100 µM.
